Columns and labels:
Assay type in all cases: in vivo
[1] = tested on: spontaneous CNV in JR5558 mice; assay: JR5558 spontaneous CNV model, quantitative immunohistochemistry (isolectin B4 whole-mount); conditions: 8 mg/kg BID v Vehicle, 12 days P14-P26
Procedure: JR5558 mice develop CNV (on an atrophic background) spontaneously with CNV lesions first emerging approximately 12 days after birth. JR5558 mice were intraperitoneally treated with various amounts of a rat anti-mouse VEGF receptor (VEGFR)-2 blocking antibody (MAB4431; R&D systems) or a purified rat non-immune isotype match control IgG2α antibody (R&D systems) starting from P14 for a total of 10 doses in 11 days and CNV development was analyzed by fluorescein angiography (FA) 24 hours after the last dose on P25. For Mice treated with CCR3 inhibitor '994 they were dosed intraperitoneally or by eye drop with various concentrations of the drug starting at P14 for a total of 12 days and CNV development was analyzed by FA 24 hours after the last dose on P26. To study the combination effects of anti-VEGFR2 antibody and CCR3 inhibitor '994, mice were treated intraperitoneally with each material alone or in combination starting from P14 for a total of 10 doses in 11 days and CNV development was analyzed by FA 24 hours after the last dose on P25. […]
When CCR3 inhibitor '994 was dosed BID instead of QD, CCR3 inhibitor '994 also produced a significant effect in limiting both total lesion (see, FIG. 4, Table 5) area and total CNV number (see, FIG. 4, Table 6). […] Eyes were completely washed and then analysed by quantitative immunohistochemistry.

[2] = tested on: spontaneous CNV in JR5558 mice; assay: JR5558 spontaneous CNV model, CNV area and number by fluorescein angiography
Procedure: JR5558 mice develop CNV (on an atrophic background) spontaneously with CNV lesions first emerging approximately 12 days after birth. JR5558 mice were intraperitoneally treated with various amounts of a rat anti-mouse VEGF receptor (VEGFR)-2 blocking antibody (MAB4431; R&D systems) or a purified rat non-immune isotype match control IgG2α antibody (R&D systems) starting from P14 for a total of 10 doses in 11 days and CNV development was analyzed by fluorescein angiography (FA) 24 hours after the last dose on P25. For Mice treated with CCR3 inhibitor '994 they were dosed intraperitoneally or by eye drop with various concentrations of the drug starting at P14 for a total of 12 days and CNV development was analyzed by FA 24 hours after the last dose on P26. To study the combination effects of anti-VEGFR2 antibody and CCR3 inhibitor '994, mice were treated intraperitoneally with each material alone or in combination starting from P14 for a total of 10 doses in 11 days and CNV development was analyzed by FA 24 hours after the last dose on P25. Experiments exploring the effects of VEGF-A and CCR3 antagonists on vascular permeability from established CNV lesions, JR5558 mice utilised dosing for only two days after the development of CNV lesions and were treated with various amounts of the VEGFR-2 antibody or CCR3 inhibitor '994, or in combinations on P24 and P25. Fluorescein Angiography (FA) was performed on P26.
The pupils of mice were dilated with 2.5% tropicamide (Bausch & Lomb, Rochester, N.Y.) and 0.2 ml of 2% fluorescein sodium (Bausch & Lomb) diluted in water was administered by intraperitoneal injection. A Kowa Genesis-Df fundus camera (Kowa, Tokyo, Japan) was used to obtain fluorescein angiograms at early (90 seconds after fluorescein injection) and late (7 min) phases of dye transit. At the early phase, the vasculature of CNV tissue is clearly defined by the intravascular fluorescein dye. At the late phase, extravascular fluorescein is evident as patches of hyperfluorescence. To quantify the CNV area, Image J program was used to determine the size of each of the hyperfluorescence CNV in each eye with FA images from the early phase. Permeability of each CNV was determined by subtracting the hyper-fluorescent area of early phase (90 second post fluorescein injection) from late phase (7 minutes post fluorescein injection) FA images by using Image J.
JR5558 mice are a strain of mice with an unidentified genetic defect which causes them to develop spontaneous CNV in both retinae with a predictable time course with the first lesions initiating at about post-natal day 12. As such treatment with CCR3 inhibitor '994 was initiated at day 12 and continued for 12 days at which point animals were examined by retinal fluorescence angiography to quantitate the total CNV lesion load and the total number of CNV lesions present in the retinae. Treatment of animals with CCR3 inhibitor '994 led to suppression of both total lesion area (see, FIG. 3, Table 3) and in the total number of CNV lesions present in the retinae (see, FIG. 3, Table 4) when dosed i.p. at either 8 mg/kg QD or 30 mg/kg QD but not when the dose was 2 mg/kg QD.

[3] = Exposure after oral versus i.p. dosing in mice; conditions: mouse; oral v i.p.
[4] = 2 mg/kg i.p. QD v Vehicle, 12 days P14-P26, fluorescence angiography
[5] = 8 mg/kg i.p. QD v Vehicle, 12 days P14-P26, fluorescence angiography
[6] = 30 mg/kg i.p. QD v Vehicle, 12 days P14-P26, fluorescence angiography
[7] = eye drop study, 1 mg/ml, 5 ul eye drop to each eye BID v Vehicle, P14-P26
[8] = eye drop study, 8 mg/kg i.p. BID comparator v Vehicle, P14-P26
[9] = eye drop study, 10 mg/ml, 5 ul eye drop to each eye BID v Vehicle, P14-P26

reduction in exposure, oral dosing as compared to i.p dosing [3]: 5 fold
SMILES: NC(=O)c1ccc(CNC(=O)NC[C@H]2CN(Cc3ccc(Cl)c(Cl)c3)CCO2)cc1 [CCR3 inhibitor '994, 4-[[[[[[(2s)-4-[(3,4-dichlorophenyl)methyl]-2-morpholinyl]methyl]-amino]carbonyl]-amino]methyl]benzamide]
Difference in mean number of CNV lesions per eye [1]: −8.00
Difference in mean total CNV area per eye [1]: −76632
Difference in mean total CNV area per eye [2, 4]: −0.0065
Difference in mean total number of CNV lesions per eye [2, 4]: −1.65
Difference in mean total CNV area per eye [2, 5]: −0.0171
Difference in mean total number of CNV lesions per eye [2, 5]: −5.03
Difference in mean total CNV area per eye [2, 6]: −0.0264
Difference in mean total number of CNV lesions per eye [2, 6]: −5.20
Difference in mean total CNV area per eye ([2]; BID study (Table 5), 8 mg/kg BID v Vehicle, 12 days P14-P26, fluorescence angiography): −0.0214
Difference in mean number of CNV lesions per eye ([2]; BID study (Table 6), 8 mg/kg BID v Vehicle, 12 days P14-P26, fluorescence angiography): −4.63
effect on CNV lesion area and total occurring CNV lesions ([2]; combination study, 30 mg/kg QD systemic, compared to vehicle): significant reduction in both CNV lesion area and total occurring CNV lesions
Difference in mean total CNV area per eye [2, 7]: −5442.63
Difference in mean total number of CNV lesions per eye [2, 7]: −2.25
Difference in mean total CNV area per eye [2, 8]: −9853.26
Difference in mean total number of CNV lesions per eye [2, 8]: 4.95
Difference in mean total CNV area per eye [2, 9]: −8047.55
Difference in mean total number of CNV lesions per eye [2, 9]: −3.96

Source: patent US20140335083A1, “METHODS OF TREATMENT AND PREVENTION OF EYE DISEASES” (GLAXO GROUP LIMITED, priority 2011, published 2014)
